This is an account of results in US20120015977A1, “QUINOLINONE DERIVATIVES USEFUL FOR THE TREATMENT OF CNS DISORDERS” (NEUROSEARCH A/S, priority 2009, published 2012).

For series [1], the system named is Psychomotor seizures induced via corneal stimulation (6 Hz). Kind of series: 6 Hz electroshock seizure model (anticonvulsant properties). The format is in vivo. To be noted: Mus musculus, po, 32 mA, 3 s corneal stimulation, p.o., pretreatment time 60 mins, vehicle 5% cremaphor, female NMRI mice, read-out: ED50 (dose that would give a 50% protection from seizures). From the text:
The animal models being used for the discovery of novel antiepileptic drugs are numerous. Among these, a low frequency (6 Hz) electroshock seizure model has recently come into the limelight as a potential model of pharmacoresistant epilepsy (see Epilepsy: a comprehensive textbook, pag. 1477, by Jerome Engel, Timothy A. Pedley, Jean Aicardi, Marc A Dichter, Solomon Moshé—2007—Medical), and it is therefore an animal model of primary interest in antiepileptic drug discovery. The compounds of the invention have shown remarkable activity to protect against 6 Hz seizures.
The evaluation of the anticonvulsant properties was carried out in female NMRI mice (20-25 g, Taconic, Denmark). The mice were housed in groups (8 per cage according to weight) with food and water available ad libitum The environment was temperature (20±2° C.) and humidity (55±15%) controlled, and consisted of a 12:12 h light-dark cycle (lights on 06:00 h). The experiments were performed according to the Danish Committee for Experiments on Animals. […]
For screening purposes, the test compound was tested at 1 dose at 1 time-point. In the case of protection of 3 or more out of 8 mice, the compound were further evaluated in dose response (N=8/group). […]

Structures are written as SMILES.

By melting point is commonly meant the temperature of the solid-liquid transition. Usually ED50 stands for the dose at which the effect has come halfway, by size or by number of responders.

As to `NC(=O)Cn1c(=O)ccc2cc(Br)ccc21` [Compound 1, 2-(6-Bromo-2-oxo-1-quinolyl)acetamide], the melting point was 256.6 to 257.5 °C. In series [1], the ED50 was 16 mg/kg.
`CCC(C(N)=O)n1c(=O)ccc2cc(Br)ccc21` (stereo not drawn) [Compound 2, 2-(6-bromo-2-oxo-1-quinolyl)butanamide]: the melting point was in the range of 138.5 to 140 °C.
`NC(=O)Cn1c(=O)ccc2cccc(Br)c21` [Compound 3, 2-(8-bromo-2-oxo-1-quinolyl)acetamide] yielded a melting point of 158.5 to 160 °C.
The compound `NC(=O)Cn1c(=O)ccc2cc(Cl)ccc21` [Compound 4, 2-(6-chloro-2-oxo-1-quinolyl)acetamide] gave a melting point of 159.4 to 160.9 °C.
In turn, `NC(=O)Cn1c(=O)ccc2cccc(Cl)c21` [Compound 5, 2-(8-chloro-2-oxo-1-quinolyl)acetamide] displayed a melting point of 166.5 to 167.6 °C.
The same measure, in the same setting: as for `CCC(C(N)=O)n1c(=O)ccc2cccc(Cl)c21` (stereo not drawn) [Compound 6, 2-(8-chloro-2-oxo-1-quinolyl)butanamide], the figure is 127 to 128 °C.
Compound `CCC(C(N)=O)n1c(=O)ccc2cc(Cl)ccc21` (stereo not drawn) [Compound 7, 2-(6-chloro-2-oxo-1-quinolyl)butanamide] displayed a melting point of 127.5 to 128.8 °C.
Still for that read-out and setting: as for `CCC(C(N)=O)n1c(=O)ccc2cccc(Br)c21` (stereo not drawn) [Compound 8, 2-(8-bromo-2-oxo-1-quinolyl)butanamide], the figure is 124.2 to 125.5 °C.
